Experimental findings from US20050107400A1, “Use of pyrazolopyridines as therapeutic compounds” (priority 2001, published 2005) are described below.

The structures appear in SMILES notation.

The subject of one data set is HSV-1. The data set is described as follows: HSV-1 replication in infected Vero 76 cells, DNA hybridization capture assay. In kind it is cell-based, herpes simplex virus 1. The note with it: Human alphaherpesvirus 1; HSV-1 in Vero 76 cells, MOI=0.001, 40-48 hours at 37° C.; read-out: IC50. On the procedure:
a) Tissue Culture and HSV Infection.
Vero 76 cells were maintained in MEM with Earle's salts, L-glutamine, 8% FBS (Hyclone, A-1111-L) and 100 units/mL Penicillin-100 μg/mL Streptomycin. For assay conditions, FBS was reduced to 2%. Cells are seeded into 96-well tissue culture plates at a density of 5×10^4 cells/well after being incubated for 45 min at 37° C. in the presence of HSV-1 or HSV-2 (MOI=0.001). Test compounds are added to the wells and the plates are incubated at 37° C. for 40-48 hours. Cell lysates are prepared as follows: media was removed and replaced with 150 μL/well 0.2 N NaOH with 1% Igepal CA 630 or NP-40. Plates were incubated up to 14 days at room temperature in a humidified chamber to prevent evaporation.
(b) Preparation of Detection DNA.
For the detection probe, a gel-purified, digoxigenin-labeled, […] PCR fragment of the HSV UL-15 sequence was utilized. PCR conditions included 0.5 μM primers, 180 μM dTTP, 20 μM dUTP-digoxigenin (Boehringer Mannheim 1558706), 200 μM each of dATP, dCTP, and dGTP, 1×PCR Buffer II (Perkin Elmer), 2.5 mM MgCl2, 0.025 units/μL of AmpliTaq Gold polymerase (Perkin Elmer), and 5 ng of gel-purified HSV DNA per 100 μL Extension conditions were 10 min at 95° C., followed by 30 cycles of 95° C. for 1 min, 55° C. for 30 sec, and 72° C. for 2 min. The amplification was completed with a 10-min incubation at 72° C. Primers were selected to amplify a 728 bp probe spanning a section of the HSV1 UL15 open reading frame (nucleotides 249-977). Single-stranded transcripts were purified with Promega M13 Wizard kits. The final product was mixed 1:1 with a mixture of 6 M GuSCN, 100 mM EDTA and 200 μg/mL herring sperm DNA and stored at 4° C.
(c) Preparation of Capture Plates.
The capture DNA plasmid (HSV UL13 region in pUC) was linearized by cutting with Xba I, denatured for 15 min at 95° C. and diluted immediately into Reacti-Bind DNA Coating Solution (Pierce, 17250, diluted 1:1 with TE buffer, pH 8) at 1 ng/μL. 75 μL/well were added to Corning (#3922 or 9690) white 96-well plates and incubated at room temperature for at least 4 hrs before washing twice with 300 μL/well 0.2×SSC/0.05% Tween-20 (SSC/T buffer). The plates were then incubated overnight at room temperature with 150 μL/well 0.2 N NaOH, 1% IGEPAL and 10 μg/mL herring sperm DNA.
Twenty-seven (27) μL of cell lysate was combined with 45 μL of hybridization solution (final concentration: 3M GuSCN, 50 mM EDTA, 100 μg/ml salmon sperm DNA, 5×Denhardt's solution, 0.25×APE, and 5 ng of the digoxigenin-labeled detection probe). APE is 1.5 M NH4-acetate, 0.15 M NH4H2 phosphate, and 5 mM EDTA adjusted to pH 6.0. Mineral oil (50 μL) was added to prevent evaporation. The hybridization plates were incubated at 95° C. for 10 minutes to denature the DNA, then incubated at 42° C. overnight. The wells were washed 6× with 300 μL/well SSC/T buffer then incubated with 75 μL/well anti-digoxigenin-HRP-conjugated antibody (Boehringer Mannheim 1207733, 1:5000 in TE) for 30 min at room temperature. The wells were washed 6× with 300 μL/well with PBS/0.05% Tween-20 before 75 μL/well SuperSignal LBA substrate (Pierce) was added. The plates were incubated at room temperature for 30 minutes and chemiluminescence was measured in a Wallac Victor reader.
The following results were obtained for HSV-1.
Take `OCc1ccc2c(-c3ccnc(NC4CCCC4)n3)c(-c3ccc(F)cc3)nn2c1` [Example 33, [3-[2-(Cyclopentylamino)-4-pyrimidinyl]-2-(4-fluorophenyl)pyrazolo-[1,5-a]pyridin-6-yl]methanol]: the concentration for half-maximal inhibition (IC50) came to 2.5 µM. Regarding `CCCCNc1nccc(-c2c(-c3ccc(F)cc3)nn3c(CCCC)cccc23)n1` [Example 84, N-Butyl-4-[7-butyl-2-(4-fluorophenyl)pyrazolo[1,5-a]pyridin-3-yl]-2-pyrimidinamine], the IC50 came to 0.6 µM.

As for `CCCCNc1nccc(-c2c(-c3ccc(F)cc3)nn3c(C)cccc23)n1` [Example 85, N-Butyl-4-[2-(4-fluorophenyl)-7-methylpyrazolo[1,5-a]pyridin-3-yl]-2-pyrimidinamine], the IC50 was 1 µM. On the same count and under the same terms, with `CCCCCCCCc1cccc2c(-c3ccnc(NCCCC)n3)c(-c3ccc(F)cc3)nn12` [Example 86, N-Butyl-4-[2-(4-fluorophenyl)-7-octylpyrazolo[1,5-a]pyridin-3-yl]-2-pyrimidinamine] the figure was 6 µM; with `CCc1cccc2c(-c3ccnc(NC4CC4)n3)c(-c3ccc(F)cc3)nn12` [Example 87, N-Cyclopropyl-4-[7-ethyl-2-(4-fluorophenyl)pyrazolo[1,5-a]pyridin-3-yl]-2-pyrimidinamine], 3 µM. Still for that read-out and setting: with `CN(C)C(=O)c1cccc2c(-c3ccnc(NC4CC4)n3)c(-c3ccc(F)cc3)nn12` [Example 88, Dimethyl 2-(4-fluorophenyl)-3-(4-(2-cyclopropylamino)pyrimidinyl)-7-pyrazolo[1,5-a]pyridinylcarboxamide] the figure was 15 µM; with `Fc1ccc(-c2nn3ccc(N4CCOCC4)cc3c2-c2ccnc(NC3CCCC3)n2)cc1` [Example 89, N-Cyclopentyl-4-[2-(4-fluorophenyl)-5-morpholin-4-ylpyrazolo[1,5-a]pyridin-3-yl]pyrimidin-2-amine], 3.6 µM. Still for that read-out and setting: to `CN(C)CCCNc1nccc(-c2c(-c3ccc(F)cc3)nn3cc(C(F)(F)F)ccc23)n1` [Example 90, N^1-{4-[2-(4-Fluorophenyl)-6-trifluoromethylpyrazolo[1,5-a]pyridin-3-yl]pyrimidin-2-yl}-N^3,N^3-dimethylpropane-1,3-diamine] belongs 1.9 µM; to `CCCCOc1cc(-c2c(-c3ccc(F)cc3)nn3ccccc23)ccn1` [Example 91, 3-(2-Butoxypyridin-4-yl)-2-(4-fluorophenyl)pyrazolo[1,5-a]pyridine], 11 µM; to `COc1ccc(-c2nn3ccccc3c2-c2ccnc(NC3CCCC3)n2)c(OC)c1` [Example 92, N-Cyclopentyl-4-[2-(2,4-dimethoxyphenyl)pyrazolo[1,5-a]pyridin-3-yl]pyrimidin-2-amine], 20 µM. As for `Fc1ccc(-c2nn3ccc(Cl)cc3c2-c2nc(NC3CCCC3)ncc2Br)cc1` [Example 93, 5-Bromo-4-[5-chloro-2-(4-fluorophenyl)pyrazolo[1,5-a]pyridin-3-yl]-N-cyclopentyl pyrimidin-2-amine], the IC50 is 2.6 µM.

Consider `COc1ccc(-c2nn3cc(C(F)(F)F)ccc3c2-c2ccnc(NC3CC3)n2)cc1` [Example 95, N-Cyclopropyl-4-[2-(4-methoxyphenyl)-6-(trifluoromethyl)pyrazolo[1,5-a]pyridin-3-yl]pyrimidin-2-amine], for which the half-maximal inhibitory concentration (IC50) is 27 µM. Take `CCOC(OCC)(OCC)c1ccc2c(-c3ccnc(NC4CC4)n3)c(-c3ccc(OC)cc3)nn2c1` [Example 96, N-Cyclopropyl-4-[2-(4-methoxyphenyl)-6-(triethoxymethyl)pyrazolo[1,5-a]pyridin-3-yl]pyrimidin-2-amine]: the half-inhibitory concentration (IC50) was 5.5 µM.

`CCOC(=O)c1ccc2c(-c3ccnc(NC4CC4)n3)c(-c3ccc(OC)cc3)nn2c1` [Example 97, Ethyl 3-[2-(cyclopropylamino)pyrimidin-4-yl]-2-(4-methoxyphenyl)-pyrazolo[1,5-a]pyridine-6-carboxylate]: the IC50 was found to be 16 µM. Same read-out and setting: to `COCCNC(=O)c1ccc2c(-c3ccnc(NC4CC4)n3)c(-c3ccc(OC)cc3)nn2c1` [Example 98, 3-[2-(Cyclopropylamino)pyrimidin-4-yl]-N-(2-methoxyethyl)-2-(4-methoxyphenyl)pyrazolo[1,5-a]pyridine-6-carboxamide] belongs 1.1 µM; to `CCCCOc1cccc2c(-c3ccnc(NC4CCCC4)n3)c(-c3ccc(OC)cc3)nn12` [Example 228, 4-[7-Butoxy-2-(4-methoxyphenyl)pyrazolo[1,5-a]pyridin-3-yl]-N-cyclopentyl-2-pyrimidinamine], 0.28 µM. Still for that read-out and setting: to `CSc1cc(Cl)cc2c(-c3ccnc(NC4CCCC4)n3)c(-c3cccc(Cl)c3)nn12` [Example 229, 4-[5-Chloro-2-(3-chlorophenyl)-7-(methylsulfanyl)pyrazolo[1,5-a]pyridin-3-yl]-N-cyclopentyl-2-pyrimidinamine] belongs 1 µM; to `CSc1cccc2c(-c3cc(NC4CCCC4)ncn3)c(-c3ccc(F)cc3)nn12` [Example 230, N-cyclopentyl-6-[2-(4-fluorophenyl)-7-(methylthio)pyrazolo[1,5-a]pyridin-3-yl]pyrimidin-4-amine], 1.3 µM; to `CC(C)Sc1cc(N2CCOCC2)cc2c(-c3ccnc(NC4CCCC4)n3)c(-c3ccc(F)cc3)nn12` [Example 232, N-Cyclopentyl-4-[2-(4-fluorophenyl)-7-(isopropylthio)-5-morpholin-4-ylpyrazolo[1,5-a]pyridin-3-yl]pyrimidin-2-amine], 0.9 µM.

Test system in the next data set: not given
Assay: not given
Settings: not given
As to `OCc1ccc2c(-c3ccnc(NC4CCCC4)n3)c(-c3ccc(F)cc3)nn2c1` [Example 33, [3-[2-(Cyclopentylamino)-4-pyrimidinyl]-2-(4-fluorophenyl)pyrazolo-[1,5-a]pyridin-6-yl]methanol], the melting point was in the range of 155 to 156 °C. As for `CCOC(=O)c1ccc2c(-c3ccnc(NC4CCCC4)n3)c(-c3ccc(F)cc3)nn2c1C` [Example 81, Ethyl 3-[2-(cyclopentylamino)-4-pyrimidinyl]-2-(4-fluorophenyl)-7-methylpyrazolo[1,5-a]pyridine-6-carboxylate], the melting point was in the range of 155 to 156 °C.

The IC50 is the concentration needed to halve the response being measured. By melting point is commonly meant the temperature of the solid-liquid transition.
